Experimental data taken from the NIST ThermoML archive (doi:10.1021/je060271a).
Values joined by “and” are separate entries in the source; they are usually repeats but may differ in a detail not shown here. Identical values can stand only once. ± gives the expanded uncertainty stated by the source.

Conditions: Liquid, Vibrating tube method

CCCCC(=O)OCC(COC(=O)CCCC)(COC(=O)CCCC)COC(=O)CCCC [pentaerythritol tetrapentanoate]
Conditions | mass density
343.14 K, 22204 kPa | 994.9 ± 1.2 kg/m3
343.14 K, 22235 kPa | 994.9 ± 1.2 kg/m3
343.14 K, 22267 kPa | 995 ± 1.2 kg/m3
343.14 K, 22298 kPa | 995 ± 1.2 kg/m3
343.14 K, 22334 kPa | 995 ± 1.2 kg/m3
343.14 K, 22365 kPa | 994.9 ± 1.2 kg/m3
343.14 K, 22395 kPa | 994.9 ± 1.2 kg/m3
343.14 K, 22432 kPa | 994.9 ± 1.2 kg/m3
343.14 K, 22462 kPa | 995.1 ± 1.2 kg/m3
343.14 K, 22494 kPa | 995 ± 1.2 kg/m3
343.14 K, 22562 kPa | 995.1 ± 1.2 kg/m3
343.14 K, 22594 kPa | 995 ± 1.2 kg/m3
343.14 K, 22728 kPa | 995.2 ± 1.2 kg/m3
343.14 K, 22766 kPa | 995.2 ± 1.2 kg/m3
343.14 K, 22798 kPa | 995.3 ± 1.2 kg/m3
343.14 K, 22830 kPa | 995.3 ± 1.2 kg/m3
343.14 K, 22868 kPa | 995.3 ± 1.2 kg/m3
343.14 K, 22901 kPa | 995.4 ± 1.2 kg/m3
343.14 K, 22933 kPa | 995.4 ± 1.2 kg/m3
343.14 K, 22971 kPa | 995.4 ± 1.2 kg/m3
343.14 K, 23004 kPa | 995.4 ± 1.2 kg/m3
343.14 K, 23038 kPa | 995.4 ± 1.2 kg/m3
343.14 K, 23077 kPa | 995.5 ± 1.2 kg/m3
343.14 K, 23110 kPa | 995.5 ± 1.2 kg/m3
343.14 K, 23144 kPa | 995.4 ± 1.2 kg/m3
343.14 K, 23177 kPa | 995.5 ± 1.2 kg/m3
343.14 K, 23217 kPa | 995.5 ± 1.2 kg/m3
343.14 K, 23284 kPa | 995.6 ± 1.2 kg/m3
343.14 K, 23357 kPa | 995.6 ± 1.2 kg/m3
343.14 K, 23391 kPa | 995.5 ± 1.2 kg/m3
343.14 K, 23432 kPa | 995.8 ± 1.2 kg/m3
343.14 K, 23500 kPa | 995.8 ± 1.2 kg/m3
343.14 K, 23535 kPa | 995.9 ± 1.2 kg/m3
343.14 K, 23577 kPa | 995.7 ± 1.2 kg/m3
343.14 K, 23612 kPa | 995.8 ± 1.2 kg/m3
343.14 K, 23646 kPa | 995.8 ± 1.2 kg/m3
343.14 K, 23687 kPa | 995.8 ± 1.2 kg/m3
343.14 K, 23722 kPa | 995.9 ± 1.2 kg/m3
343.14 K, 23757 kPa | 995.9 ± 1.2 kg/m3
343.14 K, 23799 kPa | 995.9 ± 1.2 kg/m3
343.14 K, 23834 kPa | 996 ± 1.2 kg/m3
343.14 K, 23870 kPa | 996 ± 1.2 kg/m3
343.14 K, 23913 kPa | 996.1 ± 1.2 kg/m3
343.14 K, 23949 kPa | 996.2 ± 1.2 kg/m3
343.14 K, 24100 kPa | 996 ± 1.2 kg/m3
343.14 K, 24817 kPa | 996.7 ± 1.2 kg/m3
343.14 K, 25020 kPa | 996.6 ± 1.2 kg/m3
343.14 K, 25061 kPa | 996.8 ± 1.2 kg/m3
343.14 K, 25102 kPa | 996.8 ± 1.2 kg/m3
343.14 K, 25142 kPa | 996.7 ± 1.2 kg/m3
343.14 K, 25188 kPa | 996.9 ± 1.2 kg/m3
343.14 K, 25228 kPa | 996.9 ± 1.2 kg/m3
343.14 K, 25406 kPa | 996.9 ± 1.2 kg/m3
343.14 K, 25451 kPa | 997.1 ± 1.2 kg/m3
343.14 K, 25495 kPa | 997 ± 1.2 kg/m3
343.14 K, 25549 kPa | 997 ± 1.2 kg/m3
343.14 K, 25596 kPa | 997.1 ± 1.2 kg/m3
343.14 K, 25644 kPa | 997.2 ± 1.2 kg/m3
343.14 K, 25691 kPa | 997.1 ± 1.2 kg/m3
343.14 K, 25745 kPa | 997.1 ± 1.2 kg/m3
343.14 K, 25792 kPa | 997.2 ± 1.2 kg/m3
343.14 K, 25943 kPa | 997.2 ± 1.2 kg/m3
343.14 K, 25992 kPa | 997.3 ± 1.2 kg/m3
343.14 K, 26041 kPa | 997.5 ± 1.2 kg/m3
343.14 K, 26099 kPa | 997.5 ± 1.2 kg/m3
343.14 K, 26149 kPa | 997.5 ± 1.2 kg/m3
343.14 K, 30161 kPa | 1000.1 ± 1.2 kg/m3
343.14 K, 32316 kPa | 1001.3 ± 1.2 kg/m3
343.14 K, 32354 kPa | 1001.4 ± 1.2 kg/m3
343.14 K, 32399 kPa | 1001.4 ± 1.2 kg/m3
343.14 K, 32523 kPa | 1001.6 ± 1.2 kg/m3
343.15 K, 106.2 kPa | 978.6 ± 1.2 kg/m3
343.15 K, 106.4 kPa | 978.5 ± 1.2 kg/m3 and 978.6 ± 1.2 kg/m3
343.15 K, 106.6 kPa | 978.5 ± 1.2 kg/m3
343.15 K, 106.7 kPa | 978.6 ± 1.2 kg/m3
343.15 K, 106.8 kPa | 978.6 ± 1.2 kg/m3
343.15 K, 106.9 kPa | 978.6 ± 1.2 kg/m3
343.15 K, 107.4 kPa | 978.6 ± 1.2 kg/m3
343.15 K, 109.5 kPa | 978.6 ± 1.2 kg/m3
343.15 K, 114.4 kPa | 978.4 ± 1.2 kg/m3
343.15 K, 120 kPa | 978.7 ± 1.2 kg/m3
343.15 K, 122.2 kPa | 978.7 ± 1.2 kg/m3
343.15 K, 125.2 kPa | 978.7 ± 1.2 kg/m3
343.15 K, 129.2 kPa | 978.7 ± 1.2 kg/m3
343.15 K, 133.3 kPa | 978.6 ± 1.2 kg/m3
343.15 K, 138.9 kPa | 978.6 ± 1.2 kg/m3
343.15 K, 146.6 kPa | 978.5 ± 1.2 kg/m3
343.15 K, 154.5 kPa | 978.6 ± 1.2 kg/m3
343.15 K, 164.6 kPa | 978.5 ± 1.2 kg/m3
343.15 K, 180.1 kPa | 978.6 ± 1.2 kg/m3
343.15 K, 197 kPa | 978.6 ± 1.2 kg/m3
343.15 K, 217.8 kPa | 978.7 ± 1.2 kg/m3
343.15 K, 250.8 kPa | 978.7 ± 1.2 kg/m3
343.15 K, 286.7 kPa | 978.8 ± 1.2 kg/m3
343.15 K, 330.1 kPa | 978.8 ± 1.2 kg/m3
343.15 K, 380.3 kPa | 978.7 ± 1.2 kg/m3
343.15 K, 749.2 kPa | 979 ± 1.2 kg/m3
343.15 K, 1709.2 kPa | 979.9 ± 1.2 kg/m3
343.15 K, 1788.2 kPa | 980 ± 1.2 kg/m3
343.15 K, 1843.4 kPa | 979.8 ± 1.2 kg/m3
343.15 K, 1867.5 kPa | 979.9 ± 1.2 kg/m3
343.15 K, 1894.4 kPa | 980 ± 1.2 kg/m3
343.15 K, 1917.3 kPa | 979.9 ± 1.2 kg/m3
343.15 K, 1941.1 kPa | 980 ± 1.2 kg/m3
343.15 K, 1965.4 kPa | 980.1 ± 1.2 kg/m3
343.15 K, 1994.4 kPa | 979.9 ± 1.2 kg/m3
343.15 K, 2019 kPa | 980.2 ± 1.2 kg/m3
343.15 K, 2044.9 kPa | 980.2 ± 1.2 kg/m3
343.15 K, 2075.6 kPa | 980 ± 1.2 kg/m3
343.15 K, 2102.6 kPa | 980 ± 1.2 kg/m3
343.15 K, 2129.9 kPa | 980.2 ± 1.2 kg/m3
343.15 K, 2163.5 kPa | 980.2 ± 1.2 kg/m3
343.15 K, 2193.4 kPa | 980.1 ± 1.2 kg/m3
343.15 K, 2252.9 kPa | 980.3 ± 1.2 kg/m3
343.15 K, 2352.8 kPa | 980.3 ± 1.2 kg/m3
343.15 K, 2494.2 kPa | 980.5 ± 1.2 kg/m3
343.15 K, 2573.8 kPa | 980.5 ± 1.2 kg/m3
343.15 K, 2651 kPa | 980.7 ± 1.2 kg/m3
343.15 K, 2698.2 kPa | 980.6 ± 1.2 kg/m3
343.15 K, 2738.4 kPa | 980.4 ± 1.2 kg/m3
343.15 K, 2779.7 kPa | 980.7 ± 1.2 kg/m3
343.15 K, 2830.5 kPa | 980.7 ± 1.2 kg/m3
343.15 K, 2972.7 kPa | 980.9 ± 1.2 kg/m3
343.15 K, 3068.2 kPa | 981 ± 1.2 kg/m3
343.15 K, 3117.1 kPa | 980.9 ± 1.2 kg/m3
343.15 K, 3897.8 kPa | 981.5 ± 1.2 kg/m3
343.15 K, 3924.9 kPa | 981.5 ± 1.2 kg/m3
343.15 K, 3952.8 kPa | 981.6 ± 1.2 kg/m3
343.15 K, 3986.3 kPa | 981.7 ± 1.2 kg/m3
343.15 K, 4014.7 kPa | 981.6 ± 1.2 kg/m3
343.15 K, 4043.6 kPa | 981.7 ± 1.2 kg/m3
343.15 K, 4073 kPa | 981.8 ± 1.2 kg/m3
343.15 K, 4107.7 kPa | 981.6 ± 1.2 kg/m3
343.15 K, 4137.6 kPa | 981.7 ± 1.2 kg/m3
343.15 K, 4168.8 kPa | 981.8 ± 1.2 kg/m3
343.15 K, 4199.3 kPa | 981.8 ± 1.2 kg/m3
343.15 K, 4230.1 kPa | 981.9 ± 1.2 kg/m3
343.15 K, 4267.5 kPa | 981.9 ± 1.2 kg/m3
343.15 K, 4299.4 kPa | 981.8 ± 1.2 kg/m3
343.15 K, 4597.4 kPa | 982 ± 1.2 kg/m3
343.15 K, 4629.6 kPa | 982.1 ± 1.2 kg/m3
343.15 K, 4643.1 kPa | 982 ± 1.2 kg/m3
343.15 K, 4660.4 kPa | 982.2 ± 1.2 kg/m3
343.15 K, 4661.1 kPa | 982.1 ± 1.2 kg/m3
343.15 K, 4661.7 kPa | 982.1 ± 1.2 kg/m3
343.15 K, 4662.3 kPa | 982.1 ± 1.2 kg/m3
343.15 K, 4662.6 kPa | 982 ± 1.2 kg/m3
343.15 K, 4663.1 kPa | 982.2 ± 1.2 kg/m3
343.15 K, 4754 kPa | 982 ± 1.2 kg/m3
343.15 K, 4934.5 kPa | 982.4 ± 1.2 kg/m3
343.15 K, 4956.5 kPa | 982.3 ± 1.2 kg/m3
343.15 K, 4979.2 kPa | 982.3 ± 1.2 kg/m3
343.15 K, 5005.6 kPa | 982.4 ± 1.2 kg/m3
343.15 K, 5027.6 kPa | 982.5 ± 1.2 kg/m3
343.15 K, 5050.1 kPa | 982.4 ± 1.2 kg/m3
343.15 K, 5076.2 kPa | 982.3 ± 1.2 kg/m3
343.15 K, 5120.9 kPa | 982.4 ± 1.2 kg/m3
343.15 K, 5279.4 kPa | 982.6 ± 1.2 kg/m3
343.15 K, 5366.4 kPa | 982.7 ± 1.2 kg/m3
343.15 K, 5392 kPa | 982.8 ± 1.2 kg/m3
